Laboratory results reported in publication PMC8550792, “Evolution of kinase polypharmacology across HSP90 drug discovery” (Cell Chemical Biology, 2021).
Where two headings read alike, the source gives them in different places.

How the values were obtained:
Assay in all cases: biochemical
Format in all cases: biochemical
382 unique human kinases [1] = target: T1, 382 unique human kinases (Homo sapiens, UniProt Q6P2M8); details: kinase CAMK1b, compound 10 uM; for remaining activity at 10 µM: read-out: % Enzyme Activity (relative to DMSO controls)
T1 construct: purchased Reaction Biology (HotSpot contract assay)
T1 sequence (Q6P2M8 whole entry): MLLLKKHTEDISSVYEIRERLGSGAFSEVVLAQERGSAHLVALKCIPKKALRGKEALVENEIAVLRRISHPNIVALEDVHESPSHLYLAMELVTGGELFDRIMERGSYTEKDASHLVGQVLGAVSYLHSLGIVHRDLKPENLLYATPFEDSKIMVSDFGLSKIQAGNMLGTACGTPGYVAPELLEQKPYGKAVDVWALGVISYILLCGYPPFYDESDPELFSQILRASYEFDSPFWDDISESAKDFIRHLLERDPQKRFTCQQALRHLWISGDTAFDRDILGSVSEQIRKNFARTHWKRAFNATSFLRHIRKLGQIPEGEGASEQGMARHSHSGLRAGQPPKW

382 unique human kinases [2] = target: T2, 382 unique human kinases (Homo sapiens, UniProt Q13131); details: for remaining activity at 10 µM: read-out: % Enzyme Activity (relative to DMSO controls)
T2 construct: purchased Reaction Biology (HotSpot contract assay)
T2 sequence (Q13131 whole entry): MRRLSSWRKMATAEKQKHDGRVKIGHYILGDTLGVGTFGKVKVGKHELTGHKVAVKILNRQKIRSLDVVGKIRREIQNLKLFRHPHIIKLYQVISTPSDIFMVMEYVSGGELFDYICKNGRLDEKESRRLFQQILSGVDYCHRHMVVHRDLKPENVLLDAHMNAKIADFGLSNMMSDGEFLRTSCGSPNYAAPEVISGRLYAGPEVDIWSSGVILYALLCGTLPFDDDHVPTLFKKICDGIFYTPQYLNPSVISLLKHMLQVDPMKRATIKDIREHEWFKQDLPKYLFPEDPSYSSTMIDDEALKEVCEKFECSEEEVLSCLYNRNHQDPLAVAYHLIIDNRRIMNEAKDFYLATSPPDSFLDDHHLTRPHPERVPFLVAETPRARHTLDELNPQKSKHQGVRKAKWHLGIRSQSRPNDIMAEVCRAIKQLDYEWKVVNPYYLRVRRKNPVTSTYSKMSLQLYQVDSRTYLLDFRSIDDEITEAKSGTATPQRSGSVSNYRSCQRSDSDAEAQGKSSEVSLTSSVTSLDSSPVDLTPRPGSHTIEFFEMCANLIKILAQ

382 unique human kinases [3] = target: T3, 382 unique human kinases (Homo sapiens, UniProt P25098); details: GRK2, compound at 10 uM, duplicate values; for remaining activity at 10 µM: read-out: % Enzyme Activity (relative to DMSO controls)
T3 construct: purchased Reaction Biology (HotSpot contract assay)
T3 sequence (P25098 1-689): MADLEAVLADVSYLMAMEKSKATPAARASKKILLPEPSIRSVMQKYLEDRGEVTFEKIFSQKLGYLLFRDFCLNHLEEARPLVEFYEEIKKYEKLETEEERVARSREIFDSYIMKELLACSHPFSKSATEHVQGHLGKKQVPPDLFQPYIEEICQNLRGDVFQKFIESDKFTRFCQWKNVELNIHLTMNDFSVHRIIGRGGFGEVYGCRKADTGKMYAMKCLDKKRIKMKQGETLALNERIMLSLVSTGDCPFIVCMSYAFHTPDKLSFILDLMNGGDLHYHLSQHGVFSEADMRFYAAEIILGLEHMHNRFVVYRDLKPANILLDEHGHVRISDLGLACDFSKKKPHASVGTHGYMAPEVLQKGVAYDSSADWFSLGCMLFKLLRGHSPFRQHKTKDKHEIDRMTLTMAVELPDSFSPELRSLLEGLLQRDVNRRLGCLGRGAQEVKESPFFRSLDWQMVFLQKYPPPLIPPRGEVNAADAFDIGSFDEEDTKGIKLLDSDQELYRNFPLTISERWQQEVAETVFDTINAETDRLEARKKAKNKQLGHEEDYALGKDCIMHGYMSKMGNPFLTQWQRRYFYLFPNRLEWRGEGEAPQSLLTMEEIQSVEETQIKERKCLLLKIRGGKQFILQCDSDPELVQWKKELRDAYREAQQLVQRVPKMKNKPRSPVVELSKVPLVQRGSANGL

382 unique human kinases [4] = target: T4, 382 unique human kinases (Homo sapiens, UniProt Q14164); details: kinase IKKe/IKBKE, compound 10 uM; for remaining activity at 10 µM: read-out: % Enzyme Activity (relative to DMSO controls)
T4 construct: purchased Reaction Biology (HotSpot contract assay)
T4 sequence (Q14164 1-716): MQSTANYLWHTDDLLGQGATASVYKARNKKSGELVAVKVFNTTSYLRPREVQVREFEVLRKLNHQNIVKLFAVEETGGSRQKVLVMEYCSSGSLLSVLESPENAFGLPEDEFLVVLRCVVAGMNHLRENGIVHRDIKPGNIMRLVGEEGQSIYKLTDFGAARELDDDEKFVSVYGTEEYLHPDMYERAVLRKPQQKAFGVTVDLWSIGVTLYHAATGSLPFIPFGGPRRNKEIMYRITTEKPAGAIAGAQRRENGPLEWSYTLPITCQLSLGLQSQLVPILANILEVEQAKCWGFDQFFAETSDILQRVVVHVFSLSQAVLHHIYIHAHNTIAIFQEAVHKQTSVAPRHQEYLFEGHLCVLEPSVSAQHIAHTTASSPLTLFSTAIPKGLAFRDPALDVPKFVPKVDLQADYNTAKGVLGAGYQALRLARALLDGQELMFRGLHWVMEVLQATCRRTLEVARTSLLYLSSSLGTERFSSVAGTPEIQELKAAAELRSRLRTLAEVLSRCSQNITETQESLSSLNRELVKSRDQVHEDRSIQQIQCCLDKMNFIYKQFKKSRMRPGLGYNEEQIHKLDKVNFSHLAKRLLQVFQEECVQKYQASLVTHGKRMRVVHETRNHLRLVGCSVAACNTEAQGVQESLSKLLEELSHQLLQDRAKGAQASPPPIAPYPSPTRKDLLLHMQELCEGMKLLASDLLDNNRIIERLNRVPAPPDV

382 unique human kinases [5] = target: T5, 382 unique human kinases (Homo sapiens, UniProt Q96PF2); details: kinase TSSK2, compound 10 uM; for remaining activity at 10 µM: read-out: % Enzyme Activity (relative to DMSO controls)
T5 construct: purchased Reaction Biology (HotSpot contract assay)
T5 sequence (Q96PF2 1-358): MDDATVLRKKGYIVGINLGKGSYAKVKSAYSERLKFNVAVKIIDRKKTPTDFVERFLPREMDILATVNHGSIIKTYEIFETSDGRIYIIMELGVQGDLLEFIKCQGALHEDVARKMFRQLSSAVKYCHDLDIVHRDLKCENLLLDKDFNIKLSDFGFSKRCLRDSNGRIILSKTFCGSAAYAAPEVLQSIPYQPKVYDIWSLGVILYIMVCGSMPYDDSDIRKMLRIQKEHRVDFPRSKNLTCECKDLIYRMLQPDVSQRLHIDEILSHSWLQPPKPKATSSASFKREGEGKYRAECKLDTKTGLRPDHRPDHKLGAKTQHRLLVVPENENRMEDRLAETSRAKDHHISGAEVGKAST

382 unique human kinases [6] = target: T6, 382 unique human kinases (Homo sapiens, UniProt Q86Y07); details: kinase VRK2, compound 10 uM; for remaining activity at 10 µM: read-out: % Enzyme Activity (relative to DMSO controls)
T6 construct: purchased Reaction Biology (HotSpot contract assay)
T6 sequence (Q86Y07 whole entry): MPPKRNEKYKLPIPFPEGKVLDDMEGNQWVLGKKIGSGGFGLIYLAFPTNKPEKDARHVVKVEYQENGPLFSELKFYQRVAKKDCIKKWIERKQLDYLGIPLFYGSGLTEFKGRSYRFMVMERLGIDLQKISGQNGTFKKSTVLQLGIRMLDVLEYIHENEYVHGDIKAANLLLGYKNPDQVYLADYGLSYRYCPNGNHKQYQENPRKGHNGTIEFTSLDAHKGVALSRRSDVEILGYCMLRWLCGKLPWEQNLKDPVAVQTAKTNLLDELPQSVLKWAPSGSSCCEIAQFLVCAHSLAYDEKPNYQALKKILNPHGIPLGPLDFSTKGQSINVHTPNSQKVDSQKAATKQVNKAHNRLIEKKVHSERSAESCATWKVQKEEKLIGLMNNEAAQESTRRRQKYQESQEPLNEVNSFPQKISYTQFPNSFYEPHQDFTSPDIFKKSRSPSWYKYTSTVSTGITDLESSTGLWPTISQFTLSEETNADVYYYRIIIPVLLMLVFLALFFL

382 unique human kinases [7] = target: T7, 382 unique human kinases (Homo sapiens, UniProt P05129); details: kinase PKCg, compound 10 uM; for remaining activity at 10 µM: read-out: % Enzyme Activity (relative to DMSO controls)
T7 construct: purchased Reaction Biology (HotSpot contract assay)

382 unique human kinases [8] = target: T8, 382 unique human kinases (Homo sapiens, UniProt P00519, T315I); details: ABL1 (T315I), 10 uM; for remaining activity at 10 µM: read-out: % Enzyme Activity (relative to DMSO controls)
T8 construct: purchased Reaction Biology (HotSpot contract assay)

382 unique human kinases [9] = target: T9, 382 unique human kinases (Homo sapiens, UniProt Q96SB4); details: SRPK1, 10 uM; for remaining activity at 10 µM: read-out: % Enzyme Activity (relative to DMSO controls)
T9 construct: purchased Reaction Biology (HotSpot contract assay)
T9 sequence (Q96SB4 whole entry): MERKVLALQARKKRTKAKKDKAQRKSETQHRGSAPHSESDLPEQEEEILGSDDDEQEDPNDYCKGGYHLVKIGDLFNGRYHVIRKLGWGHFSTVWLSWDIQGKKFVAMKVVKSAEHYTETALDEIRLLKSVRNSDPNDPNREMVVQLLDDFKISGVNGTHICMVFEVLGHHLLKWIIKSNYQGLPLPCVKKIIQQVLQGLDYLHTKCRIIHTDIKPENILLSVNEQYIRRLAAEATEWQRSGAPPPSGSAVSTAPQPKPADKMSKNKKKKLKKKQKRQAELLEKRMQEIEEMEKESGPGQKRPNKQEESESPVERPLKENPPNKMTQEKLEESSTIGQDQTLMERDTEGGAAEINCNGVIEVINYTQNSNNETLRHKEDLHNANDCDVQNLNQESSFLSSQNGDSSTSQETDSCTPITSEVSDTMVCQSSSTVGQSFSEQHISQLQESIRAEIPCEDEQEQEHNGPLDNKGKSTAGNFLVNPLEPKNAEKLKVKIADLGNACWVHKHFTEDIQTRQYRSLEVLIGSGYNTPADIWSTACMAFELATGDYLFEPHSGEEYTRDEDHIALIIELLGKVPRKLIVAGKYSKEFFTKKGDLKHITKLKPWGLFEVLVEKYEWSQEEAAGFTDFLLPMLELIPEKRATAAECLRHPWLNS

382 unique human kinases [10] = target: T10, 382 unique human kinases (Homo sapiens, UniProt P10721, D816V/V560G); details: c-Kit (V560G/D816V), [ATP] 20 µM, compound 10 uM; for remaining activity at 10 µM: read-out: % Enzyme Activity (relative to DMSO controls)
T10 construct: purchased Reaction Biology (HotSpot contract assay)
T10 sequence (P10721 26-976 V560G/D816V): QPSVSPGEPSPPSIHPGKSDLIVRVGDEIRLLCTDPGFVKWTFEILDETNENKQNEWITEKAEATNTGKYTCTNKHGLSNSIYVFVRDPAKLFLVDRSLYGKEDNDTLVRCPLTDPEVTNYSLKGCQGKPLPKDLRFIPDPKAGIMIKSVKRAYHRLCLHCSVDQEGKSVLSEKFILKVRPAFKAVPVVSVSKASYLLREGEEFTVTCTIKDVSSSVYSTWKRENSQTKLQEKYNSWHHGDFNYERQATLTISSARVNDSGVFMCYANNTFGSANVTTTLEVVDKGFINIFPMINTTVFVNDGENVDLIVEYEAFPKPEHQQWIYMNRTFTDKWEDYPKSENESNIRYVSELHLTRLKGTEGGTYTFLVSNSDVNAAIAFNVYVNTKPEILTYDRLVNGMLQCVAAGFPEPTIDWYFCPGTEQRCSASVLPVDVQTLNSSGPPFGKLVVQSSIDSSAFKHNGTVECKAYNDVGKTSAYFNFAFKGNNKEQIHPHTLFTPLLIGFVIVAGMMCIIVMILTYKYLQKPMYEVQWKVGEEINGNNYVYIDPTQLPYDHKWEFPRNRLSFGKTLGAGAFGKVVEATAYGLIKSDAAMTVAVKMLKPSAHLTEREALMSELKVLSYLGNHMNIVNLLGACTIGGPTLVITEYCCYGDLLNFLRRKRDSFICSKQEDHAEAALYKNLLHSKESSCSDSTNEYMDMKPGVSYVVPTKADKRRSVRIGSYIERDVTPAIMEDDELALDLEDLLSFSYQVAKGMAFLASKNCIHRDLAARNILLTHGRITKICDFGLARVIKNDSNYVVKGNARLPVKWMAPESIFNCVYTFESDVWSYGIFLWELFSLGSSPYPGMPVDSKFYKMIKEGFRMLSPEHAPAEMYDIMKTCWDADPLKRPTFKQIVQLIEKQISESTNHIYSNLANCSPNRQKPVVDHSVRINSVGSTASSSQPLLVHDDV

[11] = kinase AMPK(A1/B1/G3), compound 10 uM

Row | SMILES | remaining activity at 10 µM (382 unique human kinases [1]) | remaining activity at 10 µM (382 unique human kinases [2]; AMPK(A1/B1/G1), 10 uM) | remaining activity at 10 µM (382 unique human kinases [2]; AMPK(A1/B1/G2), 10 uM) | remaining activity at 10 µM (382 unique human kinases [2]; AMPK(A1/B2/G1), 10 uM) | remaining activity at 10 µM (382 unique human kinases [2]; [11]) | remaining activity at 10 µM (382 unique human kinases [3]) | remaining activity at 10 µM (382 unique human kinases [4]) | remaining activity at 10 µM (382 unique human kinases [5]) | remaining activity at 10 µM (382 unique human kinases [6]) | remaining activity at 10 µM (382 unique human kinases [7]) | remaining activity at 10 µM (382 unique human kinases [8]) | remaining activity at 10 µM (382 unique human kinases [9]) | remaining activity at 10 µM (382 unique human kinases [10]) | other results
1 | CC(C)c1cc(-c2n[nH]c(=O)n2-c2ccc3c(ccn3C)c2)c(O)cc1O [Ganetespib (STA9090)] | 83.4% | 79.7% | 73.2% | 70.8% | 86.1% | 104% | 95.7% | 90.3% | 91.2% | 91.3% | 72.8% |  |  | 
2 | CC(C)c1cc(-c2n[nH]c(=O)n2-c2ccc3c(ccn3C)c2)c(O)cc1O [Ganetespib] |  |  |  |  |  |  |  |  |  |  |  | 90.7% | 24.3% | 
3 | CCNC(=O)c1noc(-c2cc(C(C)C)c(O)cc2O)c1-c1ccc(CN2CCOCC2)cc1 [Luminespib] |  |  |  |  |  |  |  |  |  |  |  | 101% | 61.7% | % Enzyme Activity (relative to DMSO controls) (382 unique human kinases [9]): 101.35%; % Enzyme Activity (relative to DMSO controls) (382 unique human kinases [10]): 61.63%
4 | CCNC(=O)c1noc(-c2cc(C(C)C)c(O)cc2O)c1-c1ccc(CN2CCOCC2)cc1 [Luminespib (AUY-922)] | 94.9% | 101% | 107% | 97.6% | 119% | 106% | 109% | 102% | 102% | 99.7% | 114% |  |  | % Enzyme Activity (relative to DMSO controls) (382 unique human kinases [1]): 91.57%; % Enzyme Activity (relative to DMSO controls) (382 unique human kinases [2]; AMPK(A1/B1/G1), 10 uM): 99.40%; % Enzyme Activity (relative to DMSO controls) (382 unique human kinases [2]; AMPK(A1/B1/G2), 10 uM): 104.49%; % Enzyme Activity (relative to DMSO controls) (382 unique human kinases [2]; AMPK(A1/B2/G1), 10 uM): 96.58%; % Enzyme Activity (relative to DMSO controls) (382 unique human kinases [2]; [11]): 118.21%; % Enzyme Activity (relative to DMSO controls) (382 unique human kinases [3]): 104.97%; % Enzyme Activity (relative to DMSO controls) (382 unique human kinases [4]): 104.37%; % Enzyme Activity (relative to DMSO controls) (382 unique human kinases [5]): 101.80%; % Enzyme Activity (relative to DMSO controls) (382 unique human kinases [6]): 100.26%; % Enzyme Activity (relative to DMSO controls) (382 unique human kinases [7]): 97.02%; % Enzyme Activity (relative to DMSO controls) (382 unique human kinases [8]): 112.00%
